Molecular target: recombinant human His-ATG7 enzyme (Homo sapiens (Human), UniProt O95352)
Experiment: ATG7 Enzyme Assay (HTRF/FRET, ATG3-GST and Flag-Gabarap)
Format: biochemical
Details: for inhibition at 0.123 µM / inhibition at 0.111 µM: read-out: Percent Inhibition; for inhibition at 0.111 µM: Concentration 0.111 μM
Protocol: Example 97: ATG7 Enzyme Assay
The total volume of the ATG7 enzymatic assay is 50 μL and contains 50 mM HEPES Hemisodium (pH 7.5), 0.05% BSA, 0.01% Tween-20, 25 mM NaCl, 5 mM MgCl2, 10 μM ATP, 250 μM GSH, 5 nM ATG3-GST, 5 nM Flag-Gabarap, 100 μM TCEP and 0.15 nM recombinant human His-ATG7 enzyme. The enzymatic reaction mixture, with and without inhibitor, was incubated at 24° C. for 105 min in a 384-well plate before termination with […] of Stop/Detection buffer (0.1M HEPES Hemisodium pH 7.5, 0.05% Tween20, 20 mM EDTA, 410 mM KF, 0.53 nM Europium-Cryptate labeled monoclonal anti-Flag M2 Antibody (CisBio International) and 8.125 μg/ml PHYCOLINK goat anti-GST allophycocyanin (XL-APC) antibody (Prozyme)). After incubation for 2 hours at 24° C., quantification of FRET is performed on the Pherostar™ (BMG Labtech). Percentage inhibition values at a single concentration or enzyme inhibition (IC50) values are determined from those curves. One skilled in the art will appreciate that the values generated either as percentage inhibition at a single concentration or IC50 values are subject to experimental variation.

Sequence of recombinant human His-ATG7 enzyme (O95352 whole entry): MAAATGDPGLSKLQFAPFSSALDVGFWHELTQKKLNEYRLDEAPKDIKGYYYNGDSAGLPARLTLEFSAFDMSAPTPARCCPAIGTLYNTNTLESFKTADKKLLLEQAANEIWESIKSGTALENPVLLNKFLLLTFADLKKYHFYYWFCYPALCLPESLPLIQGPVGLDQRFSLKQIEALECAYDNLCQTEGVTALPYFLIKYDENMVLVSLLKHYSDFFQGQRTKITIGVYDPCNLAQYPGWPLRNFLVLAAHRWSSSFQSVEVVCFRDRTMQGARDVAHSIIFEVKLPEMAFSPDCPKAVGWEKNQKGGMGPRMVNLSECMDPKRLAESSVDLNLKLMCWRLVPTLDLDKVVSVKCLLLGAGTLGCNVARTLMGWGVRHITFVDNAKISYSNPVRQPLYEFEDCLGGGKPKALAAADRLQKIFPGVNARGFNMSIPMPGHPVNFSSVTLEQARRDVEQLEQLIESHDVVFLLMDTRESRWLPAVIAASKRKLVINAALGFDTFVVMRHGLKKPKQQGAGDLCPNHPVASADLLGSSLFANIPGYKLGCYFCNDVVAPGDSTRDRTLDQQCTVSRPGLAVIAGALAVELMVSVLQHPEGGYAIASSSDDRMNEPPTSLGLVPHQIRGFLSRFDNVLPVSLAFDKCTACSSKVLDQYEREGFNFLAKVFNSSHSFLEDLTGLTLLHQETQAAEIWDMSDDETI

IC50	inhibition at 0.123 µM (Concentration 0.123 μM)	inhibition at 0.111 µM	Percent Inhibition (Concentration 0.123 μM)	SMILES
> 500 nM	–	13%	–	CC(Sc1nn([C@@H]2O[C@H](COS(N)(=O)=O)[C@@H](O)[C@@H]2F)c2ncnc(N)c12)C(F)(F)F (mixture of isomers) [Compound I-101, [(2R,3R,4S,5R)-5-(4-amino-3-{[(2R)-1,1,1-trifluoropropan-2-yl]sulfanyl}-1H-pyrazolo[3,4-d]pyrimidin-1-yl)-4-fluoro-3-hydroxytetrahydrofuran-2-yl]methyl Sulfamate and [(2R,3R,4S,5R)-5-(4-amino-3-{[(2S)-1,1,1-trifluoropropan-2-yl]sulfanyl}-1H-pyrazolo[3,4-d]pyrimidin-1-yl)-4-fluoro-3-hydroxytetrahydrofuran-2-yl]methyl Sulfamate]
20 to 50 nM	–	78%	–	Nc1ncnc2c1c(SC1CCOC1)nn2[C@@H]1O[C@H](COS(N)(=O)=O)[C@@H](O)[C@@H]1F (mixture of isomers) [Compound I-123, [(2R,3R,4S,5R)-5-{4-amino-3-[(3R)-tetrahydrofuran-3-ylsulfanyl]-1H-pyrazolo[3,4-d]pyrimidin-1-yl}-4-fluoro-3-hydroxytetrahydrofuran-2-yl]methyl sulfamate and [(2R,3R,4S,5R)-5-{4-amino-3-[(3S)-tetrahydrofuran-3-ylsulfanyl]-1H-pyrazolo[3,4-d]pyrimidin-1-yl}-4-fluoro-3-hydroxytetrahydrofuran-2-yl]methyl sulfamate]
20 to 50 nM	–	76%	–	Nc1ncnc2c1c(SCC1CC1(F)F)nn2[C@@H]1O[C@H](COS(N)(=O)=O)[C@@H](O)[C@@H]1F (mixture of isomers) [Compound I-131, {(2R,3R,4S,5R)-5-[4-amino-3-({[(1R)-2,2-difluorocyclopropyl]methyl}sulfanyl)-1H-pyrazolo[3,4-d]pyrimidin-1-yl]-4-fluoro-3-hydroxytetrahydrofuran-2-yl}methyl sulfamate and {(2R,3R,4S,5R)-5-[4-amino-3-({[(1S)-2,2-difluorocyclopropyl]methyl}sulfanyl)-1H-pyrazolo[3,4-d]pyrimidin-1-yl]-4-fluoro-3-hydroxytetrahydrofuran-2-yl}methyl sulfamate]
20 to 50 nM	–	69%	–	CCC(C)Sc1nn([C@@H]2O[C@H](COS(N)(=O)=O)[C@@H](O)[C@@H]2F)c2ncnc(N)c12 (mixture of isomers) [Compound I-136, [(2R,3R,4S,5R)-5-{4-amino-3-[(2R)-butan-2-ylsulfanyl]-1H-pyrazolo[3,4-d]pyrimidin-1-yl}-4-fluoro-3-hydroxytetrahydrofuran-2-yl]methyl sulfamate and [(2R,3R,4S,5R)-5-{4-amino-3-[(2S)-butan-2-ylsulfanyl]-1H-pyrazolo[3,4-d]pyrimidin-1-yl}-4-fluoro-3-hydroxytetrahydrofuran-2-yl]methyl sulfamate]
20 to 50 nM	–	74%	–	CC(CO)Sc1nn([C@@H]2O[C@H](COS(N)(=O)=O)[C@@H](O)[C@@H]2F)c2ncnc(N)c12 (mixture of isomers) [Compound I-144, [(2R,3R,4S,5R)-5-(4-amino-3-{[(2R)-1-hydroxypropan-2-yl]sulfanyl}-1H-pyrazolo[3,4-d]pyrimidin-1-yl)-4-fluoro-3-hydroxytetrahydrofuran-2-yl]methyl sulfamate and [(2R,3R,4S,5R)-5-(4-amino-3-{[(2S)-1-hydroxypropan-2-yl]sulfanyl}-1H-pyrazolo[3,4-d]pyrimidin-1-yl)-4-fluoro-3-hydroxytetrahydrofuran-2-yl]methyl sulfamate]
20 to 50 nM	–	82%	–	CC(C#N)Sc1nn([C@@H]2O[C@H](COS(N)(=O)=O)[C@@H](O)[C@@H]2F)c2ncnc(N)c12 (mixture of isomers) [Compound I-149, [(2R,3R,4S,5R)-5-(4-amino-3-{[(1R)-1-cyanoethyl]sulfanyl}-1H-pyrazolo[3,4-d]pyrimidin-1-yl)-4-fluoro-3-hydroxytetrahydrofuran-2-yl]methyl sulfamate and [(2R,3R,4S,5R)-5-(4-amino-3-{[(1S)-1-cyanoethyl]sulfanyl}-1H-pyrazolo[3,4-d]pyrimidin-1-yl)-4-fluoro-3-hydroxytetrahydrofuran-2-yl]methyl sulfamate]
20 to 50 nM	–	71%	–	CC(Sc1nn([C@@H]2O[C@H](COS(N)(=O)=O)[C@@H](O)[C@@H]2F)c2ncnc(N)c12)C1CC1 (mixture of isomers) [Compound I-157, [(2R,3R,4S,5R)-5-(4-amino-3-{[(1R)-1-cyclopropylethyl]sulfanyl}-1H-pyrazolo[3,4-d]pyrimidin-1-yl)-4-fluoro-3-hydroxytetrahydrofuran-2-yl]methyl sulfamate and [(2R,3R,4S,5R)-5-(4-amino-3-{[(1S)-1-cyclopropylethyl]sulfanyl}-1H-pyrazolo[3,4-d]pyrimidin-1-yl)-4-fluoro-3-hydroxytetrahydrofuran-2-yl]methyl sulfamate]

The next lines start with the molecule.

SMILES	IC50	inhibition at 0.123 µM (Concentration 0.123 μM)	inhibition at 0.111 µM	Percent Inhibition (Concentration 0.123 μM)
COC(C)c1nn([C@@H]2O[C@H](COS(N)(=O)=O)[C@@H](O)[C@H]2O)c2ncnc(N)c12 (mixture of isomers) [Compound I-22, [(2R,3S,4R,5R)-5-{4-amino-3-[(1R)-1-methoxyethyl]-1H-pyrazolo[3,4-d]pyrimidin-1-yl}-3,4-dihydroxytetrahydrofuran-2-yl]methyl Sulfamate and [(2R,3S,4R,5R)-5-{4-amino-3-[(1S)-1-methoxyethyl]-1H-pyrazolo[3,4-d]pyrimidin-1-yl}-3,4-dihydroxytetrahydrofuran-2-yl]methyl Sulfamate]	> 500 nM	5%	–	–
Nc1ncnc2c1c(SC1CCCCC1O)nn2[C@@H]1O[C@H](COS(N)(=O)=O)[C@@H](O)[C@H]1O (mixture of isomers) [Compound I-47, [(2R,3S,4R,5R)-5-(4-amino-3-{[(1R,2R)-2-hydroxycyclohexyl]sulfanyl}-1H-pyrazolo[3,4-d]pyrimidin-1-yl)-3,4-dihydroxytetrahydrofuran-2-yl]methyl Sulfamate and [(2R,3S,4R,5R)-5-(4-amino-3-{[(1S,2S)-2-hydroxycyclohexyl]sulfanyl}-1H-pyrazolo[3,4-d]pyrimidin-1-yl)-3,4-dihydroxytetrahydrofuran-2-yl]methyl Sulfamate]	100 to 500 nM	48%	–	–
Nc1ncnc2c1c(SC1CCCC1O)nn2[C@@H]1O[C@H](COS(N)(=O)=O)[C@@H](O)[C@H]1O (mixture of isomers) [Compound I-54, [(2R,3S,4R,5R)-5-(4-amino-3-{[(1R,2R)-2-hydroxycyclopentyl]sulfanyl}-1H-pyrazolo[3,4-d]pyrimidin-1-yl)-3,4-dihydroxytetrahydrofuran-2-yl]methyl Sulfamate and [(2R,3S,4R,5R)-5-(4-amino-3-{[(1S,2S)-2-hydroxycyclopentyl]sulfanyl}-1H-pyrazolo[3,4-d]pyrimidin-1-yl)-3,4-dihydroxytetrahydrofuran-2-yl]methyl Sulfamate]	20 to 50 nM	75%	–	–
CC(Sc1nn([C@@H]2O[C@H](COS(N)(=O)=O)[C@@H](O)[C@H]2O)c2ncnc(N)c12)c1ccccc1 (mixture of isomers) [Compound I-70, [(2R,3S,4R,5R)-5-(4-amino-3-{[(1R)-1-phenylethyl]sulfanyl}-1H-pyrazolo[3,4-d]pyrimidin-1-yl)-3,4-dihydroxytetrahydrofuran-2-yl]methyl sulfamate and [(2R,3S,4R,5R)-5-(4-amino-3-{[(1S)-1-phenylethyl]sulfanyl}-1H-pyrazolo[3,4-d]pyrimidin-1-yl)-3,4-dihydroxytetrahydrofuran-2-yl]methyl sulfamate]	50 to 100 nM	70%	–	–
CC(O)c1nn([C@@H]2O[C@H](COS(N)(=O)=O)[C@@H](O)[C@H]2O)c2ncnc(N)c12 (single isomer, unassigned) [Compound I-23a, [(2R,3S,4R,5R)-5-{4-amino-3-[(1R)-1-hydroxyethyl]-1H-pyrazolo[3,4-d]pyrimidin-1-yl}-3,4-dihydroxytetrahydrofuran-2-yl]methyl sulfamate or [(2R,3S,4R,5R)-5-{4-amino-3-[(1S)-1-hydroxyethyl]-1H-pyrazolo[3,4-d]pyrimidin-1-yl}-3,4-dihydroxytetrahydrofuran-2-yl]methyl Sulfamate]	> 500 nM	–	–	19%
CC(O)c1nn([C@@H]2O[C@H](COS(N)(=O)=O)[C@@H](O)[C@H]2O)c2ncnc(N)c12 (single isomer, unassigned) [Compound I-23b, [(2R,3S,4R,5R)-5-{4-amino-3-[(1R)-1-hydroxyethyl]-1H-pyrazolo[3,4-d]pyrimidin-1-yl}-3,4-dihydroxytetrahydrofuran-2-yl]methyl Sulfamate or [(2R,3S,4R,5R)-5-{4-amino-3-[(1S)-1-hydroxyethyl]-1H-pyrazolo[3,4-d]pyrimidin-1-yl}-3,4-dihydroxytetrahydrofuran-2-yl]methyl Sulfamate]	100 to 500 nM	22%	–	–
